For orientation: Ki means a measure of affinity in units of concentration, obtained from inhibition or displacement.

SMILES strings stand for the structures.

Chain of 5-HT2A (P28223 whole entry): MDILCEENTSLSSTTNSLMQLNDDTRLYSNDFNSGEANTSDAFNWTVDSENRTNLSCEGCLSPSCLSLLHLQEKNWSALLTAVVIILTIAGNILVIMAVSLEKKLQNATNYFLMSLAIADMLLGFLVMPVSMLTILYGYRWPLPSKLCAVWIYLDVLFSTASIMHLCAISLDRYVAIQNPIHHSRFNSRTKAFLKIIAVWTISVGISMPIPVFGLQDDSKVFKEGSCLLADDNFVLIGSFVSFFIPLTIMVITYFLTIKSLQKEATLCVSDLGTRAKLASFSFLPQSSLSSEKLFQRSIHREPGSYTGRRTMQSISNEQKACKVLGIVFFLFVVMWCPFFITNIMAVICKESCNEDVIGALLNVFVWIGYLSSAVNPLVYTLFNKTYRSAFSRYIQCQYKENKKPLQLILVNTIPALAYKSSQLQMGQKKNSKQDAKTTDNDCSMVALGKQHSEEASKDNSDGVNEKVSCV

One assay has as its target 5-HT2A (Homo sapiens (Human), UniProt P28223). Briefly: Radioligand binding assay, [^3H]5-HT competition, 5-HT2A.
Settings: not given
For `COCCC(=O)Nc1ccc(OCCN2CCCC2)c(-c2c(C)ncnc2C)c1` [Compound 235, N-(3-(4,6-dimethylpyrimidin-5-yl)-4-(2-(pyrrolidin-1-yl)ethoxy)phenyl)-3-methoxypropanamide], the Ki is 0.211 µM.

Staying with this assay, now noted: [^3H]5-HT radioligand, membranes of HEK293 cells expressing recombinant 5-HT2A; Ki from IC50 by Cheng-Prusoff; read-out: 5-HT2A serotonin binding Ki value.
For the compound `Cc1ncnc(C)c1-c1cc(NC(=O)Cn2cccn2)ccc1OCCN1CCCC1` [Compound 236, N-(3-(4,6-dimethylpyrimidin-5-yl)-4-(2-(pyrrolidin-1-yl)ethoxy)phenyl)-2-(1H-pyrazol-1-yl)acetamide], the Ki came out at 0.0214 µM.

On to `Cc1ncnc(C)c1-c1cc(NC(=O)CN2CCn3cccc3C2)ccc1OCCN1CCCC1` [Compound 237, 2-(3,4-dihydro-1H-pyrrolo[1,2-a]pyrazin-2-yl)-N-[3-(4,6-dimethylpyrimidin-5-yl)-4-(2-pyrrolidin-1-ylethoxy)phenyl]acetamide], for which the Ki was 0.0127 µM.

Consider `Cc1ncnc(C)c1-c1cc(NC(=O)CN2CCn3nccc3C2)ccc1OCCN1CCCC1` [Compound 239, 2-(6,7-dihydropyrazolo[1,5-a]pyrazin-5 (4H)-yl)-N-(3-(4,6-dimethylpyrimidin-5-yl)-4-(2-(pyrrolidin-1-yl)ethoxy)phenyl)acetamide], for which the Ki was found to be 0.0923 µM.

Take `Cc1ncnc(C)c1-c1cc(NC(=O)CN2CCn3cnnc3C2)ccc1OCCN1CCCC1` [Compound 240, 2-(5,6-dihydro-[1,2,4]triazolo[4,3-a]pyrazin-7 (8H)-yl)-N-(3-(4,6-dimethylpyrimidin-5-yl)-4-(2-(pyrrolidin-1-yl)ethoxy)phenyl)acetamide]: the Ki was found to be 60.9 µM.

Turning to `Cc1ncnc(C)c1-c1cc(NC(=O)COC2CC2)ccc1OCCN1CCCC1` [Compound 241, 2-(cyclopropoxy)-N-[3-(4,6-dimethylpyrimidin-5-yl)-4-(2-pyrrolidin-1-ylethoxy)phenyl]acetamide], the Ki came out at 0.0278 µM.

As to `Cc1ncnc(C)c1-c1cc(NC(=O)COC2CCC2)ccc1OCCN1CCCC1` [Compound 242, 2-cyclobutoxy-N-(3-(4,6-dimethylpyrimidin-5-yl)-4-(2-(pyrrolidin-1-yl)ethoxy)phenyl)acetamide], the Ki was 0.0376 µM.

As for `Cc1ncnc(C)c1-c1cc(NC(=O)[C@@]23COC[C@@H]2C3)ccc1OCCN1CCCC1` [Compound 246, (1R,5R)—N-[3-(4,6-dimethylpyrimidin-5-yl)-4-(2-pyrrolidin-1-ylethoxy)phenyl]-3-oxabicyclo[3.1.0]hexane-1-carboxamide], the Ki was 0.0163 µM.

For `Cc1ncnc(C)c1-c1cc(NC(=O)CCc2ccc(F)cc2)ccc1OCCN1CCCC1` [Compound 248, N-[3-(4,6-dimethylpyrimidin-5-yl)-4-(2-pyrrolidin-1-ylethoxy)phenyl]-3-(4-fluorophenyl)propanamide], the inhibitory constant (Ki) amounted to 0.000845 µM.

Turning to `Cc1ncnc(C)c1-c1cc(NC(=O)Cc2cccn2C)ccc1OCCN1CCCC1` [Compound 249, N-(3-(4,6-dimethylpyrimidin-5-yl)-4-(2-(pyrrolidin-1-yl)ethoxy)phenyl)-2-(1-methyl-1H-pyrrol-2-yl)acetamide], the Ki was determined as 0.0783 µM.

For `Cc1ncnc(C)c1-c1cc(NC(=O)Cc2ccccc2)ccc1OCCN1CCCC1` [Compound 251, N-(3-(4,6-dimethylpyrimidin-5-yl)-4-(2-(pyrrolidin-1-yl)ethoxy)phenyl)-2-phenylacetamide], the inhibitory constant (Ki) worked out at 0.00205 µM.

Take `Cc1ncnc(C)c1-c1cc(NC(=O)C(C)c2ccccc2)ccc1OCCN1CCCC1` (stereo not shown) [Compound 252, N-(3-(4,6-dimethylpyrimidin-5-yl)-4-(2-(pyrrolidin-1-yl)ethoxy)phenyl)-2-phenylpropanamide]: the Ki turned out to be 0.00953 µM.

As to `Cc1ncnc(C)c1-c1cc(NC(=O)C2(c3ccccc3)CC2)ccc1OCCN1CCCC1` [Compound 253, N-(3-(4,6-dimethylpyrimidin-5-yl)-4-(2-(pyrrolidin-1-yl)ethoxy)phenyl)-1-phenylcyclopropane-1-carboxamide], the Ki turned out to be 0.00634 µM.
